Assay results taken from patent US20250345446A1 (Draupnir Bio ApS, priority 2022, published 2025).
Like-named read-outs stand apart in the source and are kept apart here. Residues, ends and D or L forms follow the SMILES beside them. *: point of attachment. Biotin = O=C1N[C@H]2[C@H](CS[C@H]2CCCCC(=O)*)N1

Target: T1, soluble ectodomain of sortilin-6his (Homo sapiens, UniProt Q99523, V650M)
T1 construct: the soluble ectodomain of sortilin-6his is measured by microscale thermophoresis (MST)
Assay: MST binding to soluble ectodomain of sortilin-6his
Conditions: MST; for Kd: read-out: KD score, binding to sortilin (Kd)

[1] = Table 4, small molecule bifunctional compounds
[2] = Table 3, monofunctional peptides

Row | Structure (SMILES) | Kd [2] | also measured
1 | C[C@@H]1CN(c2ncc(-c3ccc4c(n3)N(Cc3cccnc3C#N)C(C)(C)C4=O)cn2)CCN1C(=O)Cn1cc(COCCOCCOCC(=O)N2CCC(Oc3cccc(Oc4ccc(C(=O)N[C@@H](CCC(C)(C)C)C(=O)O)cn4)c3)CC2)nn1 [BF112, (2S)-2-[[6-[3-[[1-[2-[2-[2-[[1-[2-[(2R)-4-[5-[1-[(2-cyano-3-pyridyl)methyl]-2,2-dimethyl-3-oxo-pyrrolo[2,3-b]pyridin-6-yl]pyrimidin-2-yl]-2-methyl-piperazin-1-yl]-2-oxo-ethyl]triazol-4-yl]methoxy]ethoxy]ethoxy]acetyl]-4-piperidyl]oxy]phenoxy]pyridine-3-carbonyl]amino]-5,5-dimethyl-hexanoic acid] |  | Kd [1]: < 1 nM
2 | C[C@@H]1CN(c2ncc(-c3ccc4c(n3)N(Cc3cccnc3C#N)C(C)(C)C4=O)cn2)CCN1C(=O)Cn1cc(COCCOCCN2CCN(CCOCCOc3cccc(Oc4ccc(C(=O)N[C@@H](CCC(C)(C)C)C(=O)O)cn4)c3)CC2)nn1 [BF113, (2S)-2-[[6-[3-[2-[2-[4-[2-[2-[[1-[2-[(2R)-4-[5-[1-[(2-cyano-3-pyridyl)methyl]-2,2-dimethyl-3-oxo-pyrrolo[2,3-b]pyridin-6-yl]pyrimidin-2-yl]-2-methyl-piperazin-1-yl]-2-oxo-ethyl]triazol-4-yl]methoxy]ethoxy]ethyl]piperazin-1-yl]ethoxy]ethoxy]phenoxy]pyridine-3-carbonyl]amino]-5,5-dimethyl-hexanoic acid] |  | Kd [1]: < 1 nM
3 | C[C@@H]1CN(c2ncc(-c3ccc4c(n3)N(Cc3cccnc3C#N)C(C)(C)C4=O)cn2)CCN1C(=O)Cn1cc(COCCOCCOC2CN(CCOCCOc3cccc(Oc4ccc(C(=O)N[C@@H](CCC(C)(C)C)C(=O)O)cn4)c3)C2)nn1 [BF114, (2S)-2-[[6-[3-[2-[2-[3-[2-[2-[[1-[2-[(2R)-4-[5-[1-[(2-cyano-3-pyridyl)methyl]-2,2-dimethyl-3-oxo-pyrrolo[2,3-b]pyridin-6-yl]pyrimidin-2-yl]-2-methyl-piperazin-1-yl]-2-oxo-ethyl]triazol-4-yl]methoxy]ethoxy]ethoxy]azetidin-1-yl]ethoxy]ethoxy]phenoxy]pyridine-3-carbonyl]amino]-5,5-dimethyl-hexanoic acid] |  | Kd [1]: < 1 nM
4 | CC(C)(C)CC[C@H](NC(=O)c1ccc(Oc2cccc(OCC(=O)NCCOCCOCCOCCNc3ncc(-c4ccc5c(n4)N(Cc4cccnc4C#N)C(C)(C)C5=O)cn3)c2)nc1)C(=O)O [BF137, (2S)-2-[[6-[3-[2-[2-[2-[2-[2-[[5-[1-[(2-cyano-3-pyridyl)methyl]-2,2-dimethyl-3-oxo-pyrrolo[2,3-b]pyridin-6-yl]pyrimidin-2-yl]amino]ethoxy]ethoxy]ethoxy]ethylamino]-2-oxo-ethoxy]phenoxy]pyridine-3-carbonyl]amino]-5,5-dimethyl-hexanoic acid] |  | Kd [1]: < 1 nM
5 | CC(C)(C)CC[C@H](NC(=O)c1ccc(Oc2cccc(OCC(=O)NCCOCCOCCOCCOc3ncc(-c4ccc5c(n4)N(Cc4cccnc4C#N)C(C)(C)C5=O)cn3)c2)nc1)C(=O)O [BF139] |  | Kd [1]: 1 to 10 nM
6 | CC(C)(C)CC[C@H](NC(=O)c1ccc(Oc2cccc(OCC(=O)NCCOCCOCCOCCOCCOCCOc3ncc(-c4ccc5c(n4)N(Cc4cccnc4C#N)C(C)(C)C5=O)cn3)c2)nc1)C(=O)O [BF143, (S)-2-(6-(3-((20-((5-(1-((2-cyanopyridin-3-yl)methyl)-2,2-dimethyl-3-oxo-2,3-dihydro-1H-pyrrolo[2,3-b]pyridin-6-yl)pyrimidin-2-yl)oxy)-2-oxo-6,9, 12, 15, 18-pentaoxa-3-azaicosyl)oxy)phenoxy)nicotinamido)-5,5-dimethylhexanoic acid] |  | Kd [1]: 1 to 10 nM
7 | Cc1cc(-c2ccc(C(=O)NCCCCCCCCCCCC(=O)NCC(=O)N3CCN(c4ncc(-c5ccc6c(n5)N(Cc5cccnc5C#N)C(C)(C)C6=O)cn4)C[C@H]3C)cc2)cc(NC(=O)c2ccc(C(F)(F)F)cc2C(=O)O)n1 [BF146, 2-[[4-[4-[[12-[[2-[(2R)-4-[5-[1-[(2-cyano-3-pyridyl)methyl]-2,2-dimethyl-3-oxo-pyrrolo[2,3-b]pyridin-6-yl]pyrimidin-2-yl]-2-methyl-piperazin-1-yl]-2-oxo-ethyl]amino]-12-oxo-dodecyl]carbamoyl]phenyl]-6-methyl-2-pyridyl]carbamoyl]-5-(trifluoromethyl)benzoic acid] |  | KD score, binding to sortilin (Kd) [1]: 0
8 | CC(C)C[C@H](NC(=O)[C@H](CC(C)C)NC(=O)[C@H](CCC(N)=O)NC(=O)[C@@H](N)CCCNC(=N)N)C(=O)O [compound 22, RQLL-OH] (H-RQLL-OH) | 25 to 250 nM | 
9 | CC(C)C[C@H](NC(=O)[C@H](CC(C)C)NC(=O)[C@H](CCC(N)=O)NC(=O)[C@@H]1CCCN1)C(=O)O [compound 25] (H-PQLL-OH) | 25 to 250 nM | 
10 | CC[C@H](C)[C@H](NC(=O)[C@H](Cc1ccc(O)cc1)NC(=O)[C@@H]1CCCN1)C(=O)N[C@@H](CC(C)C)C(=O)O [compound 26] (H-PYIL-OH) | 25 to 250 nM | 
11 | CC(C)C[C@H](NC(=O)[C@H](CC(C)C)NC(=O)[C@H](Cc1ccc(O)cc1)NC(=O)[C@@H](N)CCCNC(=N)N)C(=O)O [compound 27, RYLL-OH] (H-RYLL-OH) | 25 to 250 nM | 
12 | CC(C)C[C@H](NC(=O)[C@H](CC(C)C)NC(=O)[C@H](Cc1ccc(O)cc1)NC(=O)[C@@H](N)Cc1ccccc1)C(=O)O [compound 28, FYLL-OH] (H-FYLL-OH) | 25 to 250 nM | 
13 | CC(C)C[C@H](NC(=O)[C@H](CC(C)C)NC(=O)[C@H](CCC(N)=O)NC(=O)[C@@H](N)Cc1ccc(O)cc1)C(=O)O [compound 29, YQLL-OH] (H-YQLL-OH) | 25 to 250 nM | 
14 | CC[C@H](C)[C@H](NC(=O)[C@H](Cc1ccc(O)cc1)NC(=O)[C@@H](N)Cc1ccccc1)C(=O)N[C@@H](CC(C)C)C(=O)O [compound 31] (H-FYIL-OH) | 250 to 2500 nM | 
15 | CC[C@H](C)[C@H](NC(=O)[C@H](Cc1ccc(O)cc1)NC(=O)[C@@H](N)CCCNC(=N)N)C(=O)N[C@@H](CC(C)C)C(=O)O [compound 32] (H-RYIL-OH) | 250 to 2500 nM | 
16 | CC[C@H](C)[C@H](N)C(=O)N[C@@H](CCC(N)=O)C(=O)N[C@@H](CC(C)C)C(=O)N[C@@H](CC(C)C)C(=O)O [compound 42] (H-IQLL-OH; N-terminus assumed) | 250 to 2500 nM | 
17 | CC(C)C[C@H](NC(=O)[C@H](Cc1ccc(O)cc1)NC(=O)[C@H](Cc1ccc(O)cc1)NC(=O)[C@@H](N)Cc1ccccc1)C(=O)O [compound 43] (H-FYYL-OH; N-terminus assumed) | > 2500 nM | 
18 | CC[C@H](C)[C@H](NC(=O)[C@H](Cc1ccc(O)cc1)NC(=O)[C@@H]1CCCN1C(=O)[C@H](CCCNC(=N)N)NC(=O)[C@H](CCCNC(=N)N)NC(=O)[C@@H]1CCCN1C(=O)[C@H](CCCCN)NC(=O)[C@H](CC(N)=O)NC(=O)[C@H](CCC(=O)O)NC(=O)[C@H](Cc1ccc(O)cc1)NC(=O)[C@@H](N)CC(C)C)C(=O)N[C@@H](CC(C)C)C(=O)O [compound 56] | 25 to 250 nM | 
19 | CC(C)C[C@H](N)C(=O)N[C@@H](Cc1ccc(O)cc1)C(=O)N[C@@H](CCC(=O)O)C(=O)N[C@@H](CC(N)=O)C(N)=O [compound 64] (H-LYEN-NH2; N-terminus assumed) | > 2500 nM | 
20 | CC(C)C[C@H](NC(=O)[C@H](CC(C)C)NC(=O)[C@H](CCC(N)=O)NC(=O)[C@H](Cc1ccccc1)NC(=O)CNC(=O)CNC(=O)CNC(=O)CNC(=O)[C@H](CO)NC(=O)CNC(=O)CNC(=O)CCCC[C@@H]1SC[C@@H]2NC(=O)N[C@@H]21)C(=O)O [compound 143] (Biotin-GGSGGGGFQLL-OH) |  | Kd (Table 1, biotin-linker-peptide bifunctional compounds): < 100 nM

Further lines, with some results ahead:

Row | Kd [2] | Structure (SMILES) | also measured
21 | 25 to 250 nM | CC(C)C[C@H](NC(=O)[C@H](CC(C)C)NC(=O)[C@H](CCC(N)=O)NC(=O)[C@@H](N)Cc1ccccc1)C(=O)O [compound 23, FQLL-OH] (H-FQLL-OH) | 
22 | 25 to 250 nM | CC(C)C[C@H](NC(=O)[C@H](CC(C)C)NC(=O)[C@H](CCC(N)=O)NC(=O)[C@@H](N)CCCCN)C(=O)O [compound 24] (H-KQLL-OH) | 
23 | 250 to 2500 nM | CC(C)C[C@H](NC(=O)[C@H](CC(C)C)NC(=O)[C@H](Cc1ccc(O)cc1)NC(=O)[C@@H]1CCCN1)C(=O)O [compound 33] (H-PYLL-OH) | 
24 | 25 to 250 nM | CC(C)C[C@H](NC(=O)[C@H](Cc1ccc(O)cc1)NC(=O)[C@H](Cc1ccc(O)cc1)NC(=O)[C@@H](N)CCCNC(=N)N)C(=O)O [compound 36] (H-RYYL-OH) | 
25 | 250 to 2500 nM | CC(C)C[C@H](NC(=O)[C@H](Cc1ccccc1)NC(=O)[C@H](Cc1ccc(O)cc1)NC(=O)[C@@H](N)CCCNC(=N)N)C(=O)O [compound 37] (H-RYFL-OH) | 
26 | 250 to 2500 nM | CC(C)C[C@H](NC(=O)[C@H](Cc1ccccc1)NC(=O)[C@H](CCC(N)=O)NC(=O)[C@@H](N)CCCNC(=N)N)C(=O)O [compound 38] (H-RQFL-OH) | 
27 | 250 to 2500 nM | CC(C)C[C@H](NC(=O)[C@H](Cc1ccc(O)cc1)NC(=O)[C@H](CCC(N)=O)NC(=O)[C@@H](N)CCCNC(=N)N)C(=O)O [compound 39] (H-RQYL-OH) | 
28 | > 2500 nM | CC(C)C[C@H](NC(=O)[C@H](CC(C)C)NC(=O)[C@H](CCC(N)=O)NC(=O)[C@@H](N)Cc1c[nH]cn1)C(=O)O [compound 41] (H-HQLL-OH; N-terminus assumed) | 
29 | > 2500 nM | CC(C)C[C@H](NC(=O)[C@H](CCCNC(=N)N)NC(=O)[C@H](CCCNC(=N)N)NC(=O)[C@H](CCCCN)NC(=O)[C@H](CCCCN)NC(=O)[C@H](Cc1ccccc1)NC(=O)[C@H](CC(C)C)NC(=O)[C@@H](N)CCCNC(=N)N)C(=O)N[C@@H](CCCNC(=N)N)C(=O)N[C@@H](CO)C(=O)N1CCC[C@H]1C(=O)N[C@@H](CCCNC(=N)N)C(=O)N[C@H](C(=O)N[C@@H](CC(C)C)C(=O)N[C@@H](Cc1ccccc1)C(N)=O)C(C)C [compound 47] | 
30 | < 25 nM | CC(C)C[C@H](NC(=O)[C@H](CC(C)C)NC(=O)[C@H](CCC(N)=O)NC(=O)[C@H](CCCNC(=N)N)NC(=O)[C@H](CC(C)C)NC(=O)[C@H](C)NC(=O)[C@@H]1CCCN1C(=O)[C@H](CC(=O)O)NC(=O)[C@H](CCCNC(=N)N)NC(=O)[C@H](CC(C)C)NC(=O)[C@@H]1CCCN1C(=O)[C@H](C)NC(=O)[C@H](CC(=O)O)NC(=O)[C@H](Cc1c[nH]c2ccccc12)NC(=O)[C@H](CCCNC(=N)N)NC(=O)[C@@H]1CCCN1C(=O)[C@H](C)NC(=O)[C@H](CCC(=O)O)NC(=O)[C@@H](N)CCCNC(=N)N)C(=O)O [compound 53] | 
